The nature of the data set: amide bond formation (head-to-tail lactamisation): terminal amine + amino acid COOH, EDC.HCl 2.2 equiv, DMAP 0.2 equiv, substrate (HCl salt) and reagent solutions each added dropwise over 1 h. To be noted: 14-membered ring, CH2Cl2, 4.0 mM, 2 steps.

For the compound `CCN1CCN(CC)C(=O)[C@H](CC(C)C)NC(=O)[C@@H](C)NC(=O)c2nc[nH]c2C1=O` [H-Leu-[N(Et)CH2CH2N(Et)]-CO-(imidazole-4,5-diyl)-CO-D-Ala-OH], the ring closure, yield over several steps (from CCN(CCN(CC)C(=O)[C@@H](N)CC(C)C)C(=O)c1[nH]cnc1C(=O)N[C@H](C)C(=O)O, 14.0 h) came to 0%.

As to `CCN1CCN(CC)C(=O)[C@@H](C)NC(=O)[C@H](C)NC(=O)c2nc[nH]c2C1=O` [H-D-Ala-[N(Et)CH2CH2N(Et)]-CO-(imidazole-4,5-diyl)-CO-Ala-OH], the ring closure, yield over several steps (from CCN(CCN(CC)C(=O)[C@@H](C)N)C(=O)c1[nH]cnc1C(=O)N[C@@H](C)C(=O)O, 14.0 h) worked out at 10%.

On to `CCN1CCN(CC)C(=O)[C@H](CC(C)C)NC(=O)[C@H](C)NC(=O)c2nc[nH]c2C1=O` [H-Leu-[N(Et)CH2CH2N(Et)]-CO-(imidazole-4,5-diyl)-CO-Ala-OH], for which the ring closure, yield over several steps (from CCN(CCN(CC)C(=O)[C@@H](N)CC(C)C)C(=O)c1[nH]cnc1C(=O)N[C@@H](C)C(=O)O, 14.0 h) was found to be 11%.

With `CCN1CCN(CC)C(=O)[C@H](CC(C)C)NC(=O)[C@H](CC(C)C)NC(=O)c2nc[nH]c2C1=O` [H-Leu-[N(Et)CH2CH2N(Et)]-CO-(imidazole-4,5-diyl)-CO-Leu-OH], the ring closure, yield over several steps (from CCN(CCN(CC)C(=O)[C@@H](N)CC(C)C)C(=O)c1[nH]cnc1C(=O)N[C@@H](CC(C)C)C(=O)O, 14.0 h) came to 0%.

In the case of `CN1CCN(C)C(=O)c2[nH]cnc2C(=O)NCC(=O)NCC1=O` [H-Gly-[N(Me)CH2CH2N(Me)]-CO-(imidazole-4,5-diyl)-CO-Gly-OH], the ring closure, yield over several steps (from CN(CCN(C)C(=O)c1[nH]cnc1C(=O)NCC(=O)O)C(=O)CN, 10.5 h) is 7%.

As to `C[C@@H]1NC(=O)c2nc[nH]c2C(=O)N(C)CCN(C)C(=O)[C@H](C)NC1=O` [H-Ala-[N(Me)CH2CH2N(Me)]-CO-(imidazole-4,5-diyl)-CO-Ala-OH], the ring closure, yield over several steps (from C[C@H](N)C(=O)N(C)CCN(C)C(=O)c1[nH]cnc1C(=O)N[C@@H](C)C(=O)O, 14.0 h) was found to be 32%.

Turning to `CC(C)C[C@@H]1NC(=O)c2nc[nH]c2C(=O)N(C)CCN(C)C(=O)[C@H](C)NC1=O` [H-Ala-[N(Me)CH2CH2N(Me)]-CO-(imidazole-4,5-diyl)-CO-Leu-OH], the ring closure, yield over several steps (from CC(C)C[C@H](NC(=O)c1nc[nH]c1C(=O)N(C)CCN(C)C(=O)[C@H](C)N)C(=O)O, 14.0 h) was found to be 12%.

Consider `CC(C)C[C@@H]1NC(=O)c2nc[nH]c2C(=O)N(C)CCN(C)C(=O)CNC1=O` [H-Gly-[N(Me)CH2CH2N(Me)]-CO-(imidazole-4,5-diyl)-CO-Leu-OH], for which, where the note is “from CC(C)C[C@H](NC(=O)c1nc[nH]c1C(=O)N(C)CCN(C)C(=O)CN)C(=O)O, 17.5 h”, the ring closure, yield over several steps turned out to be 37%.

As for `CC(C)C[C@@H]1NC(=O)[C@@H](C)NC(=O)c2nc[nH]c2C(=O)N(C)CCN(C)C1=O` [H-Leu-[N(Me)CH2CH2N(Me)]-CO-(imidazole-4,5-diyl)-CO-D-Ala-OH], the ring closure, yield over several steps (from CC(C)C[C@H](N)C(=O)N(C)CCN(C)C(=O)c1[nH]cnc1C(=O)N[C@H](C)C(=O)O, 14.0 h) was 37%.

Regarding `CC(C)C[C@@H]1NC(=O)[C@H](C)NC(=O)c2nc[nH]c2C(=O)N(C)CCN(C)C1=O` [H-Leu-[N(Me)CH2CH2N(Me)]-CO-(imidazole-4,5-diyl)-CO-Ala-OH], for the setting “from CC(C)C[C@H](N)C(=O)N(C)CCN(C)C(=O)c1[nH]cnc1C(=O)N[C@@H](C)C(=O)O, 14.0 h”, the ring closure, yield over several steps was 14%.

Consider `CC(C)C[C@@H]1NC(=O)c2nc[nH]c2C(=O)N(C)CCN(C)C(=O)[C@@H](C)NC1=O` [H-D-Ala-[N(Me)CH2CH2N(Me)]-CO-(imidazole-4,5-diyl)-CO-Leu-OH], for which the ring closure, yield over several steps (from CC(C)C[C@H](NC(=O)c1nc[nH]c1C(=O)N(C)CCN(C)C(=O)[C@@H](C)N)C(=O)O, 14.0 h) is 11%.

`C[C@H]1NC(=O)c2nc[nH]c2C(=O)N(C)CCN(C)C(=O)[C@@H](C)NC1=O`: the ring closure, yield over several steps (from C[C@@H](N)C(=O)N(C)CCN(C)C(=O)c1[nH]cnc1C(=O)N[C@H](C)C(=O)O, 14.0 h) was 0%.

Take `CCN1CCN(CC)C(=O)c2[nH]cnc2C(=O)N[C@H](C)C(=O)NCC1=O` [H-Gly-[N(Et)CH2CH2N(Et)]-CO-(imidazole-4,5-diyl)-CO-D-Ala-OH]: the ring closure, yield over several steps (from CCN(CCN(CC)C(=O)c1[nH]cnc1C(=O)N[C@H](C)C(=O)O)C(=O)CN, 14.0 h) is 8%.

For the compound `CCN1CCN(CC)C(=O)[C@H](C)NC(=O)CNC(=O)c2nc[nH]c2C1=O` [H-Ala-[N(Et)CH2CH2N(Et)]-CO-(imidazole-4,5-diyl)-CO-Gly-OH], the ring closure, yield over several steps (from CCN(CCN(CC)C(=O)[C@H](C)N)C(=O)c1[nH]cnc1C(=O)NCC(=O)O, 14.0 h) is 0%.

In the case of `CC(C)C[C@@H]1NC(=O)CNC(=O)c2nc[nH]c2C(=O)N(C)CCN(C)C1=O` [H-Leu-[N(Me)CH2CH2N(Me)]-CO-(imidazole-4,5-diyl)-CO-Gly-OH], for the setting “from CC(C)C[C@H](N)C(=O)N(C)CCN(C)C(=O)c1[nH]cnc1C(=O)NCC(=O)O, 14.0 h”, the ring closure, yield over several steps came out at 0%.

`CCN1CCN(CC)C(=O)[C@H](C)NC(=O)[C@@H](C)NC(=O)c2nc[nH]c2C1=O` [H-Ala-[N(Et)CH2CH2N(Et)]-CO-(imidazole-4,5-diyl)-CO-D-Ala-OH]: where the note is “from CCN(CCN(CC)C(=O)[C@H](C)N)C(=O)c1[nH]cnc1C(=O)N[C@H](C)C(=O)O, 14.0 h”, the ring closure, yield over several steps came to 8%.

Regarding `C[C@H]1NC(=O)CNC(=O)c2nc[nH]c2C(=O)N(C)CCN(C)C1=O` [H-D-Ala-[N(Me)CH2CH2N(Me)]-CO-(imidazole-4,5-diyl)-CO-Gly-OH], the ring closure, yield over several steps (from C[C@@H](N)C(=O)N(C)CCN(C)C(=O)c1[nH]cnc1C(=O)NCC(=O)O, 14.0 h) worked out at 0%.

For the compound `CCN1CCN(CC)C(=O)c2[nH]cnc2C(=O)N[C@@H](C)C(=O)NCC1=O` [H-Gly-[N(Et)CH2CH2N(Et)]-CO-(imidazole-4,5-diyl)-CO-Ala-OH], the ring closure, yield over several steps (from CCN(CCN(CC)C(=O)c1[nH]cnc1C(=O)N[C@@H](C)C(=O)O)C(=O)CN, 14.0 h) amounted to 9%.

Consider `C[C@H]1NC(=O)c2nc[nH]c2C(=O)N(C)CCN(C)C(=O)CNC1=O` [H-Gly-[N(Me)CH2CH2N(Me)]-CO-(imidazole-4,5-diyl)-CO-D-Ala-OH], for which the ring closure, yield over several steps (from C[C@@H](NC(=O)c1nc[nH]c1C(=O)N(C)CCN(C)C(=O)CN)C(=O)O, 18.0 h) was determined as 17%.

For `C[C@@H]1NC(=O)CNC(=O)c2nc[nH]c2C(=O)N(C)CCN(C)C1=O` [H-Ala-[N(Me)CH2CH2N(Me)]-CO-(imidazole-4,5-diyl)-CO-Gly-OH], the ring closure, yield over several steps (from C[C@H](N)C(=O)N(C)CCN(C)C(=O)c1[nH]cnc1C(=O)NCC(=O)O, 14.0 h) came to 0%.

Take `CCN1CCN(CC)C(=O)c2[nH]cnc2C(=O)NCC(=O)NCC1=O` [H-Gly-[N(Et)CH2CH2N(Et)]-CO-(imidazole-4,5-diyl)-CO-Gly-OH]: the ring closure, yield over several steps (from CCN(CCN(CC)C(=O)c1[nH]cnc1C(=O)NCC(=O)O)C(=O)CN, 14.0 h) is 0%.

Turning to `CCN1CCN(CC)C(=O)[C@H](C)NC(=O)[C@H](C)NC(=O)c2nc[nH]c2C1=O` [H-Ala-[N(Et)CH2CH2N(Et)]-CO-(imidazole-4,5-diyl)-CO-Ala-OH], under “from CCN(CCN(CC)C(=O)[C@H](C)N)C(=O)c1[nH]cnc1C(=O)N[C@@H](C)C(=O)O, 14.0 h”, the ring closure, yield over several steps turned out to be 7%.

For the compound `CCN1CCN(CC)C(=O)[C@@H](C)NC(=O)CNC(=O)c2nc[nH]c2C1=O` [H-D-Ala-[N(Et)CH2CH2N(Et)]-CO-(imidazole-4,5-diyl)-CO-Gly-OH], the ring closure, yield over several steps (from CCN(CCN(CC)C(=O)[C@@H](C)N)C(=O)c1[nH]cnc1C(=O)NCC(=O)O, 14.0 h) worked out at 3%.

Consider `CCN1CCN(CC)C(=O)[C@H](CC(C)C)NC(=O)CNC(=O)c2nc[nH]c2C1=O` [H-Leu-[N(Et)CH2CH2N(Et)]-CO-(imidazole-4,5-diyl)-CO-Gly-OH], for which the ring closure, yield over several steps (from CCN(CCN(CC)C(=O)[C@@H](N)CC(C)C)C(=O)c1[nH]cnc1C(=O)NCC(=O)O, 14.0 h) was found to be 8%.

With `C[C@@H]1NC(=O)[C@@H](C)NC(=O)c2nc[nH]c2C(=O)N(C)CCN(C)C1=O` [H-Ala-[N(Me)CH2CH2N(Me)]-CO-(imidazole-4,5-diyl)-CO-D-Ala-OH], the ring closure, yield over several steps (from C[C@H](N)C(=O)N(C)CCN(C)C(=O)c1[nH]cnc1C(=O)N[C@H](C)C(=O)O, 14.0 h) was determined as 0%.

As to `C[C@@H]1NC(=O)c2nc[nH]c2C(=O)N(C)CCN(C)C(=O)CNC1=O` [H-Gly-[N(Me)CH2CH2N(Me)]-CO-(imidazole-4,5-diyl)-CO-Ala-OH], the ring closure, yield over several steps (from C[C@H](NC(=O)c1nc[nH]c1C(=O)N(C)CCN(C)C(=O)CN)C(=O)O, 21.0 h) amounted to 7%.

As to `C[C@@H]1NC(=O)c2nc[nH]c2C(=O)N(C)CCN(C)C(=O)[C@@H](C)NC1=O` [H-D-Ala-[N(Me)CH2CH2N(Me)]-CO-(imidazole-4,5-diyl)-CO-Ala-OH], for the setting “from C[C@H](NC(=O)c1nc[nH]c1C(=O)N(C)CCN(C)C(=O)[C@@H](C)N)C(=O)O, 14.0 h”, the ring closure, yield over several steps was 22%.

With `CCN1CCN(CC)C(=O)[C@@H](C)NC(=O)[C@@H](C)NC(=O)c2nc[nH]c2C1=O`, the ring closure, yield over several steps (from CCN(CCN(CC)C(=O)[C@@H](C)N)C(=O)c1[nH]cnc1C(=O)N[C@H](C)C(=O)O, 14.0 h) was found to be 9%.

For the origin of these results see PMC6268944.
